Like-named read-outs stand apart in the source and are kept apart here.
Key:
A375 cells = format: cell-based, human; details: A375 soft agar; single compound at IC10
From the text: After three weeks of treatment, cells were fixed and stained in 1% paraformaldehyde in 1×PBS containing 0.005% crystal violet overnight. Cells were destained with multiple washes of 1×PBS to remove background staining. Plates were scanned and images quantified using Nikon NIS Elements software. To quantify, each image was sharpened and an ROI of equal size drawn around each well. Intensity thresholds were set to include all pixels equal to or greater than the intensity of the mean background fluorescence. Objects within the threshold of each ROI were quantified using an automated object count function and exported for analysis. Object number was quantified to denote total colony formation. […] Additivity was established when the expected viability determined by the Bliss independence model was equal to the actual viability. This model was chosen since the effects of both compounds are mutually non-exclusive and follow first order Michaelis-Menten kinetics.
To determine if the effects of each combination were more than, less than, or equal to additive, predictions for additivity were made using the Bliss Independence (Table 7), as disclosed in Yan H, Zhang B, Li S, Zhao Q. A formal model for analyzing drug combination effects and its application in TNF-alpha-induced NFkappaB pathway. BMC Syst. […] Drug combination studies and their synergy quantification using the Chou-Talalay method.

[1] = tested on: lysosomes (LAMP1, LysoTracker Red) in U2OS cells; test: Lysosome analysis by fluorescent microscopy (LAMP1 / LysoTracker Red); format: cell-based; details: 3 μM for 3 hours
Description: To determine deacidification of the lysosome, cells were incubated with LysoTracker Red, a dye that localizes to the lysosome based on the […] of the compartment. If the lysosome is no longer acidic, there is a loss in the amount of LysoTracker Red staining. Lysosomal inhibition was further determined by immunofluorescence of lysosome-associated membrane protein-1 (LAMP1). If the lysosome is inhibited, lysosomal turnover should decrease and an increase in the amount of LAMP1 staining would be apparent. U2OS cells were treated with Example 7 or Example 26 at 3 μM for 3 hours, supplementing LysoTracker Red for the final hour.
Using image analysis software, the mean intensities of both the LAMP1 and LysoTracker Red staining were measured and represent altered intensity level between treatments on intensity plots. Individual points were measured using a line scan on the image analysis software, which measures the intensity across the path of a line at any given point. Not only does the presence of LAMP1 positive membranes increases, but the intensity in LAMP1 staining also increases with Example 7 and Example 26 treatment. The inverse relationship in intensity holds true for LysoTracker Red staining.
U2OS cells were seeded at 5×10^4 cells per well in 5A McCoy's with 10% FBS on number 1.5 coverglass discs in 24-well tissue culture dishes. After 24 hours, cells were treated with 3 μM CQ, QN, VATG-027, or VATG-032 for three hours. An hour prior to fixation, media was supplemented with LysoTracker Red added at 100 nM (Invitrogen, L7528). Cells were washed with 1×PBS, fixed with 3.7% formaldehyde, permeabilized with 0.2% Triton-X 100, and blocked with 3% bovine serum albumin (BSA) in PBS. LAMP1 antibody (Santa Cruz, sc-18821) was added at 1:1000 for 16 hours at 4° C. followed by Alexa-Fluor-488-conjugated anti-mouse IgG (Invitrogen, A11008) 1:5000 for 1 hour at room temperature. Nuclei were stained with Hoechst 33342 (2 μg/mL). Coverglass discs were inverted onto a microscope slide using mounting gel. The microscope slides were imaged using a 60× oil-immersion objective on a Nikon Eclipse Ti fluorescent microscope. Intensity of the red and green channels were visualized using the intensity plot on the Nikon NIS Elements software (FIG. 13B). […] The RGB threshold of only the color […] indicating both LAMP1 and LysoTracker Red positivity was performed and data for analysis. The Mander's co-localization coefficient was produced from the Nikon NIS Elements software.
Next, the inventors sought to confirm the inhibition of lysosomal turnover induced by the compounds of the present invention, for example, those of Formula III, Formula III(a), Formula V, Formula V(a), Formula A, Formula A^1, Formula A^2, Formula A^3, or a pharmaceutically acceptable salt thereof, by evaluating the abundance of endogenous lysosomal protein, LAMP1. In addition, lysosome acidity was assessed by co-staining cells with LysoTracker Red, a dye that localizes to the lysosome based on the low pH. Cells were treated with 3 μM CQ, QN, Example 7, or Example 27 for 3 hours, with LysoTracker Red supplemented for the final hour. Following, cells were fixed and stained with endogenous LAMP1 antibodies and both LAMP1 and LysoTracker Red imaged. […] To quantify this phenotype, the co-localization of LAMP1 and LysoTracker Red was measured using image analysis software. […] In addition, Mander's colocalization coefficient (MCC) values were determined for each treatment (FIG. 13C). Not only does the presence of LAMP1-positive membranes increase, but the intensity of LAMP1 staining also increases with QN, Example 7, and Example 27 treatment (FIG. 13C).

[2] = tested on: U2OS cells stably expressing tfLC3; format: cell-based; details: for Effective Concentration (EC): concentration with statistically significant increase in puncta number over vehicle control, three hours
Description: U2OS cells stably expressing tfLC3 were seeded at 50,000 cells per well in 5A McCoy's with 10% FBS on number 1.5 coverglass in 24-well tissue culture dishes. After 24 hours, cells were treated with known autophagy controls rapamycin [100 nM] (Millipore, 553210-10 mg), bafilomycin A1 [100 nM] (AG Scientific, B-1183), AZD-8055 [100 nM](Selleck Chemicals, S1555), and CQ [50 μM] as well as autophagy inhibitors (CQ, QN, Example 7, and Example 27) at doses of 0.1 μM, 0.25 μM, 0.5 μM, 1 μM, 5 μM, 15 μM, 25 μM, and 50 μM for three hours. Cells were washed with 1×PBS, fixed with 3.7% formaldehyde, and nuclei were stained with Hoechst 33342 (2 μg/mL). Coverglass was inverted onto microscope slides using mounting gel. Cells were imaged using a 60× oil-immersion objective on a Nikon Eclipse Ti fluorescent microscope and 10 images at each dose were taken for quantification. Image processing and quantification were completed with the Nikon NIS Elements software. To quantify, images were deconvolved using a 2D blind deconvolution function with one iteration and settings of normal cell thickness and normal noise level. Regions of interest (ROI) were drawn around the edges of each cell. Intensity thresholds were set to include all pixels equal to or greater than the intensity above the mean background fluorescence using the separation feature and restrictions set for puncta size (FIG. 9). Objects within the threshold for each ROI were quantified using an automated object count function and exported for analysis. Although other parameters were also collected, the mean intensity of the objects was averaged between the 10 images of each dose, or approximately 50 cells (FIGS. 9B and 9C). Representative images were chosen for each dose and the lookup table (LUT) brightness' were set based on the mean intensity of the DMSO control (FIGS. 8A and 10A). The mean intensity of each image was divided by the mean intensity of the DMSO control to control for brightness and the LUTs were adjusted by the percent difference to avoid background and for consistent visualization. All other settings (gain, exposure time, and lamp strength) were kept the same across all conditions. […] Mean intensity was further chosen for quantification as it accurately represents both the increase in puncta number and area when the accumulation of autophagosomes partially fuse (FIG. 9C, 9D). Quantification of the red channel (RFP-LC3 puncta) was performed to determine the total autophagic vesicle population (both autophagosomes and autolysosomes).
Autophagy inhibition can be measured by fluorescent microscopy using cells expressing a tandem fluorescent (RFP-GFP) labeled LC3 sensor (tfLC3). Upon autophagosome nucleation, LC3 is localized to the autophagic membrane and the overlapping GFP and RFP fluorescence appears as yellow puncta. After the autophagosome matures, it fuses with the lysosome, forming an autolysosome. The GFP in this LC3 sensor is pH labile and becomes quenched by the acidic environment of the autolysosome. However, the RFP remains stable; therefore, autolysosomes are indicated by red puncta. Accordingly, when autophagy is inhibited at the final stage (completion), the abundance of yellow puncta is expected to increase proportionally to the level of autophagy inhibition.
Cells were then fixed and imaged by fluorescent microscopy.

[3] = tested on: endogenous LC3 in U2OS cells; test: Western blot of endogenous LC3 (LC3-II accumulation) in U2OS; format: cell-based; details: three hours, basally and in response to rapamycin-induced autophagy induction, FIG. 7
Description: For Western blotting, U2OS cells were seeded in 10 cm plates in 5A McCoy's with 10% FBS at 1×10^6 cells per plate. […] After treatment, cells were lysed [10 mM KPO4, 1 mM EDTA, 10 mM MgCl2, 5 mM EGTA, 50 mM bis-glycerophosphate, 0.5% NP40, 0.1% Brij35, 0.1% sodium deoxycholate, 1 mM NaVO4, 5 mM NaF, 2 mM DTT, and complete protease inhibitors (Sigma, P8340-5 mL)] and 50 μg of protein was resolved by SDS-PAGE. […] Proteins were detected with enhanced chemiluminescence or using the Odyssey machine and quantified (FIGS. 12, 15, 16, 7 and 11).

Compound | Effective Concentration (EC) [2] [µM] | accumulation of LC3-II [3] | Potency (EC/ECCQ) [2] | other results
COc1ccc(-c2ccc3c(N4CCOC[C@@H]4C)nc(N4CCOC[C@@H]4C)nc3n2)cc1CO [AZD-8055, reference compound] | – | – | – | Relative Growth Inhibition Compound B (A375 cells): 0.12
CCN1CCC(Nc2c3c(nc4cc(Cl)ccc24)CCCC3)CC1 [Example 26, 6-Chloro-N-(1-ethylpiperidin-4-yl)-1,2,3,4-tetrahydroacridin-9-amine] | – | – | – | LAMP1 staining [1]: increases; LysoTracker Red staining ([1]; LysoTracker Red for the final hour): less intense
COc1cc(NC(C)CCCN)c2ncccc2c1 (stereo not drawn) [Primaquine, primaquine] | 50 | induce the accumulation of LC3-II | – | Potency (EC/ECCQ) ([2]; relative potency score versus chloroquine, greater than one = more potent than CQ): 0.25
piperaquine | 50 | induce the accumulation of LC3-II | 0.25 | –
CCN(CC)Cc1cc(Nc2ccnc3cc(Cl)ccc23)ccc1O [Amodiaquine, amodiaquine] | 15 | induce the accumulation of LC3-II | 1 | –

— US20170000784A1, “Autophagy Inhibitors” (priority 2013, published 2017)
